Where a name gives a salt, the structure may show the parent alone.
What was measured:
[1] = Antiobesity effects in obese Zucker rats; assay type: in vivo, genetically obese male Zucker rats; conditions: 14 days; for Relative Body Weight Gain Index: gain / days / dose (g/kg)
[2] = Antiobesity effects in obese Zucker rats; assay type: in vivo, genetically obese male Zucker rats; conditions: for Circulating Insulin: last day of treatment; for Relative Body Weight Gain Index: gain / days / dose (g/kg)
Description: ANTIOBESITY EFFECTS IN OBESE ZUCKER RATS
Genetically Obese Male Zucker rats were kept in temperature (22° C.) and light (12 hours light-dark cycle) regulated rooms. One week prior to the start of the experiment, the rats were transferred to individual wirebottomed cages and trained to eat a powdered chow diet (Ralston Purina Co., St. Louis, Mo.) ad libitum.
At the beginning of the experiment, the control group contributed to eat the chow diet and the experimental animals were given a chow diet containing drug. The amount of drug administered was calculated from the food intake per kg body weight for each experimental group. The age of the rats at the start of the drug treatment was two to three months. The period of treatment was 28 to 64 days. Food intake and body weights were recorded periodically (once each day to twice a week) throughout the duration of the study. Plasma samples for insulin and glucose determinations were taken from clipped tails. Carcass composition was determined at the end of the treatment period and, or comparative purposes, prior to the start of treatment.

[3] = Glucose clearance: acute in vivo model; parameters: species or system Sprague-Dawley rats; conditions: Rattus norvegicus, po, 0.5 h; 100 mg/kg intragastric, 30 min before i.p. glucose 1 g/kg; circulating glucose at 30 min; >100% indicates activity
Description: GLUCOSE CLEARANCE: ACUTE IN VIVO MODEL
The rationale for this test is that compounds which suppress insulin secretion should increase circulating glucose levels above those observed in controls following the administration of a high glucose load. Sprague-Dawley rats which range in weight from 150 to 180 grams after an overnight fast of 16 or 18 hours are given the test compound (100 mg/kg body weight) by intragastric administration 30 minutes before the intraperitoneal administration of glucose (1 g/kg body weight). Circulating glucose levels are determined immediately before glucose administration and 30, 60 and 90 minutes after glucose administration. Active compounds increase circulating glucose levels compared to controls. Since glucose levels peak at 30 minutes following glucose administration, the difference in circulating glucose levels between controls and treated rats at 30 minutes is used as an index of activity. The data are expressed as percent of control.

[4] = tested on: isolated perfused rat pancreas (insulin secretion); assay: Insulin-secretory activity in the isolated perfused rat pancreas; parameters: species or system rat (female Charles River); conditions: 16.7 mM glucose, index > 1 indicates suppression of insulin secretion
Description: DETERMINATION OF INSULIN-SECRETORY ACTIVITY IN THE ISOLATED PERFUSED RAT PANCREAS
Pancreases were obtained from young adult female Charles River rats weighing from 200-300 g. The animals were anesthesized with sodium pentobarbitol (45 mg/kg), injected intraperitoneally, and the pancreas with its intact vasculature was removed and connected to an extracorporeal perfusion apparatus.
The basic perfusion solution contained: 133 mM NaCl, 4.4 mM KCl, 2.5 mM MgSO4, 2.4 mM Ca gluconate, 1.5 mM KH2 PO4, 29.4 mM HaHCO3, 4% dextran and 0.2% bovine serum albumin and glucose as discussed below. The perfusion flow rate was kept constant at 4 ml/min. After a 15-20 minute equilibration period, the experimental protocol was begun. The pancreatic effluent was collected in either one or four-minute fractions.
The perfusion was run in the following sequence for each test compounds:
30 min 16.7 mM glucose--internal control
30 min 16.7 mM glucose and test compound
10 min 16.7 mM glucose--to check pancreas viability
The perfusion for the nontreated pancreas preparation was run as above, except that the test compound was omitted and replaced with perfusion solution.
Test compounds were dissolved in 90% ethanol or dimethylsulfoxide to a concentration of 25 mM and then diluted in the perfusion buffer to the desired concentration. The perfusion effluent was collected in one or four minute fractions--the samples were checked immediately, aliquoted for submission to radioimmunoassay and stored at -20° C. until the time of assay. The radioimmunoassay of insulin was carried out by a back-titration method using a pure rat insulin standard.
To assess the inhibitory activity of the test compounds, an inhibition index was calculated. The inhibition index is derived by comparing the insulin secretion response from treated versus nontreated pancreas preparations. For each preparation, a ratio of insulin secretion was calculated from the area under the insulin secretion curve of the first pulse of 16.7 mM glucose divided by the area under the curve of the second pulse of 16.7 mM glucose containing compound.

For O=C(CCCCCCCCc1cccnc1)N1CCC(C=C(c2ccccc2)c2ccccc2)CC1 [Example 30, 4-(2,2-Diphenylethenyl)-1-[1-oxo-9-(3-pyridinyl)nonyl]piperidine], which “Relative Body Weight Gain Index” value ([1]; 49 mg/kg) is on record?
Its value is 17.

What about the “Body Weight Gain (treated minus control)” value ([2]; 49 mg/kg, 14 days) of the same molecule?
Its value is -12 g.

What about the “Food Intake” value ([2]; 49 mg/kg, 14 days) of the same molecule?
The value was 100 % of control.

What about the response vs control in vivo at 100 mg/kg [3] of the same molecule?
The response vs control in vivo at 100 mg/kg was 100%.

What about the “Perfused Pancreas Inhibition Index” value ([4]; 50 μM) of the same molecule?
The value was 1.4.

With C(=C(c1ccccc1)c1ccccc1)C1CCN(CCCCCCCCc2cccnc2)CC1 [Example 25, 3-[8-[4-(2,2-diphenylethenyl)-1-piperidinyl]octyl]pyridine] as the molecule, how does the “Body Weight Gain (treated minus control)” value ([1]; 38 mg/kg, marked *) read?
The value was -49 g.

And the “Body Weight Gain (treated minus control)” value ([2]; 9 mg/kg, 28 days)?
Its value is “+9 g”.

What about the “Food Intake” value ([2]; 9 mg/kg, 28 days) of the same molecule?
Its value is 91 % of control.

What about the “Circulating Insulin” value ([2]; 9 mg/kg, 28 days) of the same molecule?
Its value is 83 % of control.

And the “Body Weight Gain (treated minus control)” value ([2]; 17 mg/kg, 28 days)?
Its value is -16 g.

And the “Food Intake” value ([2]; 17 mg/kg, 28 days)?
Its value is 89 % of control.

What about the “Circulating Insulin” value ([2]; 17 mg/kg, 28 days) of the same molecule?
Its value is 76 % of control.

And the “Circulating Insulin” value ([2]; 24 mg/kg, 28 days, * p < 0.05)?
The value was 47 % of control.

And the “Body Weight Gain (treated minus control)” value ([2]; 24 mg/kg, 28 days, * p < 0.05)?
Its value is -32 g.

What about the “Food Intake” value ([2]; 24 mg/kg, 28 days, * p < 0.05) of the same molecule?
The value was 82 % of control.

And the “Circulating Insulin” value ([2]; 28 mg/kg, 64 days, * p < 0.05)?
The value was 47 % of control.

What about the “Body Weight Gain (treated minus control)” value ([2]; 28 mg/kg, 64 days, * p < 0.05) of the same molecule?
Its value is -88 g.

What about the “Carcass Lipid Difference (treated minus control)” value ([2]; 28 mg/kg, 64 days, * p < 0.05) of the same molecule?
Its value is -62 g.

And the “Food Intake” value ([2]; 28 mg/kg, 64 days, * p < 0.05)?
The value was 81 % of control.

And the “Circulating Insulin” value ([2]; 34 mg/kg, 28 days, * p < 0.05)?
Its value is 33 % of control.

What about the “Body Weight Gain (treated minus control)” value ([2]; 34 mg/kg, 28 days, * p < 0.05) of the same molecule?
The value was -55 g.

What about the “Food Intake” value ([2]; 34 mg/kg, 28 days, * p < 0.05) of the same molecule?
The value was 83 % of control.

And the “Relative Body Weight Gain Index” value ([2]; 38 mg/kg, 14 days)?
The value was 92.

And the “Food Intake” value ([2]; 38 mg/kg, 14 days, marked *)?
The value was 73 % of control.

And the Food Intake ([2]; 28 days of treatment, in words)?
The Food Intake was “dose dependent decrease”.

And the body weight ([2]; 28 days of treatment, in words)?
The body weight was “dose dependent decrease in body weight”.

What about the insulin levels ([2]; 28 days of treatment, in words) of the same molecule?
The insulin levels was “dose dependent decrease”.

And the body weight ([2]; 64 days, in words)?
Its body weight is “Reduced body weight”.

And the carcass lipid ([2]; 64 days, in words)?
Its carcass lipid is “decreased carcass lipid”.

And the Glucose levels ([2]; treatment of obese rats, in words)?
The Glucose levels was “unaltered by treatment”.

And the response vs control in vivo at 100 mg/kg [3]?
The response vs control in vivo at 100 mg/kg was 127%.

And the “Perfused Pancreas Inhibition Index” value ([4]; 50 μM)?
The value was 38.

With C(=C(c1ccccc1)c1ccccc1)C1CCN(CCCCc2cccnc2)CC1 [Example 17, 3-[4-[4-(2,2-Diphenylethenyl)-1-piperidinyl]butyl]pyridine] as the molecule, how does the response vs control in vivo at 100 mg/kg [3] read?
Its response vs control in vivo at 100 mg/kg is 101%.

What about the “Perfused Pancreas Inhibition Index” value ([4]; 100 μM) of the same molecule?
The value was 1.7.

For C(=C(c1ccccc1)c1ccccc1)C1CCN(CCCCCCn2ccnc2)CC1 [Example 34, 1-[6-[4-(2,2-Diphenylethenyl)-1-piperidinyl]hexyl]-1H-imidazole], which response vs control in vivo at 100 mg/kg [3] is on record?
Its response vs control in vivo at 100 mg/kg is 101%.

And the “Perfused Pancreas Inhibition Index” value ([4]; 50 μM)?
Its value is 1.1.

With C(=C(c1ccccc1)c1ccccc1)C1CCN(CCCCCCCCCc2cccnc2)CC1 [Example 31, 3-[9-[4-(2,2-Diphenylethenyl)-1-piperidinyl]nonyl]pyridine] as the molecule, how does the “Relative Body Weight Gain Index” value ([2]; 41 mg/kg, 14 days) read?
The value was 61.

What about the “Body Weight Gain (treated minus control)” value ([2]; 41 mg/kg, 14 days, marked *) of the same molecule?
The value was -35 g.

What about the “Food Intake” value ([2]; 41 mg/kg, 14 days, marked *) of the same molecule?
Its value is 82 % of control.

And the response vs control in vivo at 100 mg/kg [3]?
Its response vs control in vivo at 100 mg/kg is 107%.

What about the “Perfused Pancreas Inhibition Index” value ([4]; 50 μM) of the same molecule?
The value was 2.7.

Which “Relative Body Weight Gain Index” value ([1]; 46 mg/kg) does the source give for C(=C(c1ccccc1)c1ccccc1)C1CCN(CCCCCCCCCCc2cccnc2)CC1 [Example 32, 3-[10-[4-(2,2-Diphenylethenyl)-1-piperidinyl]decyl]pyridine] here?
The value was 71.

What about the “Food Intake” value ([2]; 46 mg/kg, 14 days) of the same molecule?
The value was 91 % of control.

And the “Body Weight Gain (treated minus control)” value ([2]; 46 mg/kg, 14 days, marked *)?
Its value is -46 g.

What about the response vs control in vivo at 100 mg/kg [3] of the same molecule?
Its response vs control in vivo at 100 mg/kg is 100%.

Which results are given for Fc1ccc(C(CC2CCN(CCCCCCc3cccnc3)CC2)c2ccc(F)cc2)cc1 [Example 26, 3-[6-[4-[2,2-Bis(4-fluorophenyl)ethyl]-1-piperidinyl]hexyl]pyridine (1:1)-(E)-2-butenedioate salt]?
response vs control in vivo at 100 mg/kg [3]: 125%; Perfused Pancreas Inhibition Index ([4]; 50 μM): 2.0

What does the source list for C(=C(c1ccccc1)c1ccccc1)C1CCN(CCCCCCc2cccnc2)CC1 [Example 23, 3-[6-[4-(2,2-diphenylethenyl)-1-piperidinyl]hexyl]pyridine (1:1)-(E)-2-butenedioate salt]?
response vs control in vivo at 100 mg/kg [3]: 144%; Perfused Pancreas Inhibition Index ([4]; 100 μM): 2.6

Source: patent US4632925A, “N-substituted diphenylpiperidines and antiobesity use thereof” (Hoffmann-La Roche Inc., priority 1985, dated 1986)
